Test results as given in PubChem BioAssay AID1259407 (Chemical Carcinogenesis Research Information System (CCRIS), 2018).
Activity calls are given as the source filed them. No rule for the calls is given here.

Tested on: CCRIS mutagenicity, Ames/micronucleus/aberration tests
Test: CCRIS mutagenicity studies
[1] = Test System: AMES SALMONELLA TYPHIMURIUM, Strain/Indicator: TA98, Metabolic Activation: HAMSTER, LIVER, S-9, AROCLOR 1254, Method: STANDARD PLATE
[2] = Test System: AMES SALMONELLA TYPHIMURIUM, Strain/Indicator: TA98, Metabolic Activation: NONE, Method: STANDARD PLATE
[3] = Test System: AMES SALMONELLA TYPHIMURIUM, Strain/Indicator: TA98, Metabolic Activation: RAT, LIVER, S-9, AROCLOR 1254, Method: STANDARD PLATE
[4] = Test System: AMES SALMONELLA TYPHIMURIUM, Strain/Indicator: TA100, Metabolic Activation: NONE, Method: STANDARD PLATE
[5] = Test System: AMES SALMONELLA TYPHIMURIUM, Strain/Indicator: TA100, Metabolic Activation: RAT, LIVER, S-9, AROCLOR 1254, Method: STANDARD PLATE
[6] = Test System: AMES SALMONELLA TYPHIMURIUM, Strain/Indicator: TA1535, Metabolic Activation: HAMSTER, LIVER, S-9, AROCLOR 1254, Method: STANDARD PLATE
[7] = Test System: AMES SALMONELLA TYPHIMURIUM, Strain/Indicator: TA1535, Metabolic Activation: NONE, Method: STANDARD PLATE
[8] = Test System: AMES SALMONELLA TYPHIMURIUM, Strain/Indicator: TA1535, Metabolic Activation: RAT, LIVER, S-9, AROCLOR 1254, Method: STANDARD PLATE
[9] = Test System: AMES SALMONELLA TYPHIMURIUM, Strain/Indicator: TA1537, Metabolic Activation: HAMSTER, LIVER, S-9, AROCLOR 1254, Method: STANDARD PLATE
[10] = Test System: AMES SALMONELLA TYPHIMURIUM, Strain/Indicator: TA1537, Metabolic Activation: NONE, Method: STANDARD PLATE
[11] = Test System: AMES SALMONELLA TYPHIMURIUM, Strain/Indicator: TA1537, Metabolic Activation: RAT, LIVER, S-9, AROCLOR 1254, Method: STANDARD PLATE

CC1=CC(=O)CC(C)(C)C1
mutagenic call (End Point: IN VITRO CHROMOSOMAL ABERRATIONS, Test System: CHINESE HAMSTER LUNG FIBROBLAST CELLS (CHL/IU), Metabolic Activation: RAT, LIVER, S-9, PHENOBARBITAL AND 5,6-BENZOFLAVONE): active; positive (structural changes) | mutagenic call (End Point: IN VITRO CHROMOSOMAL ABERRATIONS, Test System: CHO CELLS, Metabolic Activation: NONE): inactive; negative; precipitation occurred at 1600 ug/ml | mutagenic call (End Point: IN VITRO CHROMOSOMAL ABERRATIONS, Test System: CHO CELLS, Metabolic Activation: RAT, LIVER, S-9, AROCLOR 1254): inactive; negative | mutagenic call [1]: inactive; negative | mutagenic call [2]: inactive; negative | mutagenic call [3]: inactive; negative | mutagenic call (Test System: AMES SALMONELLA TYPHIMURIUM, Strain/Indicator: TA100, Metabolic Activation: HAMSTER, LIVER, S-9, AROCLOR 1254, Method: STANDARD PLATE): inactive; negative | mutagenic call [4]: inactive; negative | mutagenic call [5]: inactive; negative | mutagenic call [6]: inactive; negative | mutagenic call [7]: inactive; negative | mutagenic call [8]: inactive; negative | mutagenic call [9]: inactive; negative | mutagenic call [10]: inactive; negative | mutagenic call [11]: inactive; negative | mutagenic call (Test System: MOUSE LYMPHOMA, Strain/Indicator: L5178Y (TK+/TK-), Metabolic Activation: NONE, Method: MICROWELL): inactive; negative | mutagenic call (Test System: MOUSE LYMPHOMA, Strain/Indicator: L5178Y (TK+/TK-), Metabolic Activation: RAT, LIVER, S-9, AROCLOR 1242 AND AROCLOR 1254 (2:1), Method: SUSPENSION/PLATE): inactive; negative | mutagenic call (Test System: UDS RAT HEPATOCYTES, Strain/Indicator: BROMODEOXYURIDINE INCORP, Metabolic Activation: NONE, Method: FLOW CYTOMETRIC ANALYSIS): active; positive | mutagenic call (Test System: UDS RAT HEPATOCYTES, Strain/Indicator: THY INCORP, Metabolic Activation: NONE, Method: AUTORADIOGRAPHY): active; positive

O=C1c2ccc(O)cc2C(=O)c2ccc(O)cc21
mutagenic call [2]: inactive; negative | mutagenic call [3]: inactive; negative | mutagenic call [4]: inactive; negative | mutagenic call [5]: inactive; negative | mutagenic call [7]: inactive; negative | mutagenic call [8]: inactive; negative | mutagenic call (Test System: AMES SALMONELLA TYPHIMURIUM, Strain/Indicator: TA1538, Metabolic Activation: NONE, Method: STANDARD PLATE): inactive; negative | mutagenic call (Test System: AMES SALMONELLA TYPHIMURIUM, Strain/Indicator: TA1538, Metabolic Activation: RAT, LIVER, S-9, AROCLOR 1254, Method: STANDARD PLATE): inactive; negative

O=C(O)C1=C/C(=N\Nc2ccc(-c3ccc(N=Nc4ccc(N/N=C5\C=CC(=O)C(C(=O)O)=C5)c5cc(S(=O)(=O)O)ccc45)cc3)cc2)C=CC1=O
mutagenic call (Test System: AMES SALMONELLA TYPHIMURIUM, Strain/Indicator: TA98, Metabolic Activation: HAMSTER, LIVER, S-9, Method: PREINCUBATION (PRIVAL METHOD)): active; positive

O=c1c(O)c(-c2ccc(O)cc2)oc2cc(O)cc(O)c12
mutagenic call (Test System: AMES SALMONELLA TYPHIMURIUM, Strain/Indicator: TA97A, Metabolic Activation: NONE, Method: STANDARD PLATE): inactive; negative | mutagenic call (Test System: AMES SALMONELLA TYPHIMURIUM, Strain/Indicator: TA97A, Metabolic Activation: RAT, LIVER, S-9, AROCLOR 1254, Method: STANDARD PLATE): active; positive | mutagenic call [1]: active; positive | mutagenic call [2]: inactive; negative | mutagenic call (Test System: AMES SALMONELLA TYPHIMURIUM, Strain/Indicator: TA98, Metabolic Activation: RAT, LIVER, S-9, 5,6-BENZOFLAVONE AND/OR SODIUM PHENOBARBITAL, Method: PREINCUBATION): active; positive | mutagenic call [3]: active; positive | mutagenic call (Test System: AMES SALMONELLA TYPHIMURIUM, Strain/Indicator: TA98, Metabolic Activation: RAT, LIVER, S-105, 5,6-BENZOFLAVONE AND/OR SODIUM PHENOBARBITAL, Method: PREINCUBATION): inactive; negative | mutagenic call [4]: inactive; negative | mutagenic call (Test System: AMES SALMONELLA TYPHIMURIUM, Strain/Indicator: TA102, Metabolic Activation: NONE, Method: STANDARD PLATE): inactive; negative | mutagenic call (Test System: AMES SALMONELLA TYPHIMURIUM, Strain/Indicator: TA102, Metabolic Activation: RAT, LIVER, S-9, AROCLOR 1254, Method: STANDARD PLATE): active; positive | mutagenic call [6]: inactive; negative | mutagenic call [7]: inactive; negative | mutagenic call [8]: inactive; negative | mutagenic call [9]: active; positive | mutagenic call [10]: inactive; negative | mutagenic call [11]: active; positive | mutagenic call (Test System: MOUSE LYMPHOMA, Strain/Indicator: L5178Y (TK+/TK-), Metabolic Activation: NONE, Method: SUSPENSION/PLATE): active; positive. reevaluation of results: positive | mutagenic call (Test System: MOUSE LYMPHOMA, Strain/Indicator: L5178Y (TK+/TK-), Metabolic Activation: RAT, LIVER, S-9, AROCLOR 1254, Method: SUSPENSION/PLATE): active; positive. reevaluation of results: equivocal

Cc1cc(S(=O)(=O)O)c2c(C)ccc(C(C)C)cc1-2
mutagenic call (Test System: AMES SALMONELLA TYPHIMURIUM, Strain/Indicator: TA98, Metabolic Activation: NONE): inactive; negative | mutagenic call (Test System: AMES SALMONELLA TYPHIMURIUM, Strain/Indicator: TA98, Metabolic Activation: S-9): inactive; negative | mutagenic call (Test System: AMES SALMONELLA TYPHIMURIUM, Strain/Indicator: TA100, Metabolic Activation: NONE): inactive; negative | mutagenic call (Test System: AMES SALMONELLA TYPHIMURIUM, Strain/Indicator: TA100, Metabolic Activation: S-9): inactive; negative | mutagenic call (Test System: AMES SALMONELLA TYPHIMURIUM, Strain/Indicator: TA1535, Metabolic Activation: NONE): inactive; negative | mutagenic call (Test System: AMES SALMONELLA TYPHIMURIUM, Strain/Indicator: TA1535, Metabolic Activation: S-9): inactive; negative | mutagenic call (Test System: AMES SALMONELLA TYPHIMURIUM, Strain/Indicator: TA1537, Metabolic Activation: NONE): inactive; negative | mutagenic call (Test System: AMES SALMONELLA TYPHIMURIUM, Strain/Indicator: TA1537, Metabolic Activation: S-9): inactive; negative | mutagenic call (Test System: E. COLI, Strain/Indicator: WP2 UVRA, Metabolic Activation: NONE): inactive; negative | mutagenic call (Test System: E. COLI, Strain/Indicator: WP2 UVRA, Metabolic Activation: S-9): inactive; negative
